# ChEMBL document CHEMBL1201862, “PubChem BioAssay data set” (2004)
# Calls of active or inactive are those of the source.
# Key:
# [1] = molecular target: T1, Alkaline phosphatase, tissue-nonspecific isozyme (Homo sapiens, UniProt P05186); experiment: activation of tissue-nonspecific alkaline phosphatase – biochemical, TNAP isozyme, human IAP uHTS hits, selectivity assay for human IAP activator project, dose response (AID 488886); type: functional;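 further: potency of compounds raising TNAP activity as a selectivity check on IAP activators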
# T1 sequence (P05186 whole entry): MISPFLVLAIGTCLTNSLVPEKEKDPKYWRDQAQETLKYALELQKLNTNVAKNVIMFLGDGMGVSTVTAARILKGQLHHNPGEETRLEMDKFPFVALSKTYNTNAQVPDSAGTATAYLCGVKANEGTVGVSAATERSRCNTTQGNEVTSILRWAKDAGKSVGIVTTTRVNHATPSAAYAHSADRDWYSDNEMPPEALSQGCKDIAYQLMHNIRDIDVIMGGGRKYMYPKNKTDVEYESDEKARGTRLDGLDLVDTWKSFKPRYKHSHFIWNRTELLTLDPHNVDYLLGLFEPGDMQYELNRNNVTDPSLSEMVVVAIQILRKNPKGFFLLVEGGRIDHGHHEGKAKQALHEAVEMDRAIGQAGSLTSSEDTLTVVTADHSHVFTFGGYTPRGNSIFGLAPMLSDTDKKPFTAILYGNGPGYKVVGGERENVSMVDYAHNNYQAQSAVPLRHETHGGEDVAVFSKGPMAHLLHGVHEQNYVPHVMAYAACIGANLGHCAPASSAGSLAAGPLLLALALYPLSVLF
# [2] = molecular target: T2, Intestinal-type alkaline phosphatase (Homo sapiens, UniProt P09923); experiment: Dose Response confirmation of uHTS hits from a small molecule inhibitors of human intestinal alkaline phosphatase via a luminescent assay. [Related pubchem assays (depositor defined):AID2544, AID2574]; type: functional
# T2 sequence (P09923 whole entry): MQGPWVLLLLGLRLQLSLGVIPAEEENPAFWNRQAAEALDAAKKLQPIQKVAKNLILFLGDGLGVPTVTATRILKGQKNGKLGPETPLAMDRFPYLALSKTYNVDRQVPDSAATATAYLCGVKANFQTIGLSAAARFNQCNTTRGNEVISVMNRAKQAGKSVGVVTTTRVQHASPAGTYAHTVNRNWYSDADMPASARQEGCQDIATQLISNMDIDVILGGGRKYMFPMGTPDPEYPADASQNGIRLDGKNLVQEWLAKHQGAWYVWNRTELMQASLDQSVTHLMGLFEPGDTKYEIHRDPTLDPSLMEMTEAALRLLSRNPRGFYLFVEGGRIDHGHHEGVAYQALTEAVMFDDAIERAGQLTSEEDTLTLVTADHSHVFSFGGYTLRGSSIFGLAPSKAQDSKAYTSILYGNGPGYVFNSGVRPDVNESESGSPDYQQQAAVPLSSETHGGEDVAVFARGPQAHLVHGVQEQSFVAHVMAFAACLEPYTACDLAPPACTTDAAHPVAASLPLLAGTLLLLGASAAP
# [3] = molecular target: Intestinal-type alkaline phosphatase (Mus musculus, UniProt P24822); experiment: PubChem AID 488875; type: functional
# Sequence of Intestinal-type alkaline phosphatase (Mus musculus, UniProt P24822) (P24822 whole entry): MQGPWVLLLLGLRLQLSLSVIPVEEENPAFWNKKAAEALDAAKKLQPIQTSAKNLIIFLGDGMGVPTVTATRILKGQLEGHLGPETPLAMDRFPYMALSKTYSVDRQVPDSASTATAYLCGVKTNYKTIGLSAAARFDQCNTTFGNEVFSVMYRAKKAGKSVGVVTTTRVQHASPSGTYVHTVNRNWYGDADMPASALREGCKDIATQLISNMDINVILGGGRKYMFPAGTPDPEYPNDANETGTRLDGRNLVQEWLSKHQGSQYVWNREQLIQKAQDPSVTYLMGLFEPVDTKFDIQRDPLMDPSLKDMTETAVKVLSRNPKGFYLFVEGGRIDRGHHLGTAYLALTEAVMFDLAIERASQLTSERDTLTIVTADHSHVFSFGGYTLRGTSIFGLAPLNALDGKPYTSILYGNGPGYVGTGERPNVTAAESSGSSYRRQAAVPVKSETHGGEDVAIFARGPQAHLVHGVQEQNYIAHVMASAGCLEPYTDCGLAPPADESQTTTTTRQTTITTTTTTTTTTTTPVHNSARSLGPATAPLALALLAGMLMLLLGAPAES
# [4] = molecular target: T2, Intestinal-type alkaline phosphatase; experiment: inhibition of human intestinal alkaline phosphatase – biochemical, luminescent, uHTS hits, set 2, dose response (AID 488793); type: functional
# Beta-galactosidase = Beta-galactosidase (Escherichia coli, UniProt Q8VNN2); experiment: detection-enzyme interference by beta-gal modulators – biochemical, E. coli enzyme, set 3, artefact control for CCR6 antagonist project, dose response (AID 504712); type: functional
# Sequence of Beta-galactosidase (Q8VNN2 whole entry): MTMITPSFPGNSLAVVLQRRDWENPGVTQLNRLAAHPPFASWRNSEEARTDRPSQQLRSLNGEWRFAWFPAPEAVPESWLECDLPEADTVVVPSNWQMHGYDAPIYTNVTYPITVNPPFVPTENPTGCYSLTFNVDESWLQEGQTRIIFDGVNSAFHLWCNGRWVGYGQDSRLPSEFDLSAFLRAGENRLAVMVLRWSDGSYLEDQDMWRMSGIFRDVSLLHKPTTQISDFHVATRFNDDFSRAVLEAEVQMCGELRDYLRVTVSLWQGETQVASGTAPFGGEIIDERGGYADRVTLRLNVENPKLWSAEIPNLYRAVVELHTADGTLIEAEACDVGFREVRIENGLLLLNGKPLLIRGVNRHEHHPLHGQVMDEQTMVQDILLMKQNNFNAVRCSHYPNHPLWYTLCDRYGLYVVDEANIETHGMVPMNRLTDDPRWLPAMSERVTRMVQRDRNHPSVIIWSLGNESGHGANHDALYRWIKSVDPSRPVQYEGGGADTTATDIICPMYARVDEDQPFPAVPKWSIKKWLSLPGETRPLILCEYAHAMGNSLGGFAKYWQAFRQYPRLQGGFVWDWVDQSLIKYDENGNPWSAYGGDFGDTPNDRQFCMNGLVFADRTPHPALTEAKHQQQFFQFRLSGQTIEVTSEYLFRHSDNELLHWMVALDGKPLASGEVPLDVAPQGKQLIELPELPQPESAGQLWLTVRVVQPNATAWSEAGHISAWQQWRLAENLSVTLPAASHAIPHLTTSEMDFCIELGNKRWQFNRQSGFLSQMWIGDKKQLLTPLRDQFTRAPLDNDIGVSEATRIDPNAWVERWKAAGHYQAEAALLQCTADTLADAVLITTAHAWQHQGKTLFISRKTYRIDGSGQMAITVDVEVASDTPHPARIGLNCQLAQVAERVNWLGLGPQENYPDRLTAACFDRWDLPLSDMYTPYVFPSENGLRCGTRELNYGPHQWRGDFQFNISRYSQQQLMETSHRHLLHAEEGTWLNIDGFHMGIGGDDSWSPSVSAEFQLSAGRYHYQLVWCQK
# [5] = molecular target: C-C chemokine receptor type 6 (Homo sapiens, UniProt P51684); experiment: antagonism of CCR6 beta-arrestin recruitment – cell-based, luminescent beta-arrestin readout, dose response (AID 504728); type: functional
# Sequence of C-C chemokine receptor type 6 (P51684 whole entry): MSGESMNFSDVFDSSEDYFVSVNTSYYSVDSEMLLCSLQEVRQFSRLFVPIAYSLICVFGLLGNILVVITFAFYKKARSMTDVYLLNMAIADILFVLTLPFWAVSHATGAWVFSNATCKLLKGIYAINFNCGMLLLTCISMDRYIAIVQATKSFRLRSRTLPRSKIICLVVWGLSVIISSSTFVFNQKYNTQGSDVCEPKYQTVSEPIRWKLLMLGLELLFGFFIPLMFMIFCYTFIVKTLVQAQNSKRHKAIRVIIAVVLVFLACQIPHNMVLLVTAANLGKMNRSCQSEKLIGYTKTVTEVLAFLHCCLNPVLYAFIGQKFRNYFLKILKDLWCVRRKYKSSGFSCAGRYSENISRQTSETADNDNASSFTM
# [6] = molecular target: T3, E3 ubiquitin-protein ligase XIAP (Homo sapiens, UniProt P98170); experiment: small molecules displacing peptide from XIAP – biochemical, IAP family, fluorescence polarization (AID 1018); type: functional
# T3 sequence (P98170 whole entry): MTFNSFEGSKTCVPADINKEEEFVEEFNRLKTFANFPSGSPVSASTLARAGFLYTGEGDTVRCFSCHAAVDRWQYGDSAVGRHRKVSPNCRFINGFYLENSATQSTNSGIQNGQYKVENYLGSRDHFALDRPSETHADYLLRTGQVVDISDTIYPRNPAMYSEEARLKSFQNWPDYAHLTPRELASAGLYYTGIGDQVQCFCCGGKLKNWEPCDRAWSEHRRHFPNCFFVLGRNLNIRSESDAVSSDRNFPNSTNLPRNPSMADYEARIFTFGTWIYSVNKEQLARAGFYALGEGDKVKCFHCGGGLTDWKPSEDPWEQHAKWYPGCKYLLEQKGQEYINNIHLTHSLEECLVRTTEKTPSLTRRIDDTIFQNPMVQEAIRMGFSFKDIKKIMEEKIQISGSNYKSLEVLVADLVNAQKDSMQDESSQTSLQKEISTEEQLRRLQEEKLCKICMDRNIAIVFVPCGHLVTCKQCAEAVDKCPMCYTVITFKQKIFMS
# [7] = molecular target: T3, E3 ubiquitin-protein ligase XIAP; experiment: Counter Screen using XIAP-Bir3 for Chemical Antagonists of Bir1/2 domains of IAP-family anti-apoptotic proteins. [Related pubchem assays (depositor defined):AID1018, AID1449, AID1514, AID1638, AID1749, AID1750, AID488957, AID488963]
# Troponin, cardiac muscle = Troponin, cardiac muscle (Homo sapiens, UniProt P19429+P45379+P63316); experiment: Fluorescence-based biochemical high throughput dose response assay for activators of the calcium sensitivity of cardiac Regulated Thin Filaments (RTF). [Related pubchem assays (depositor defined):AID493008, AID493018, AID504382, AID504383]; type: protein-complex assay
# [8] = alpha-synuclein stem-loop luciferase translation blockers – H4 neuroglioma cells, luminescence, confirmation (AID 1988); type: functional, cell-based
# [9] = Luminescence Cell-Based Dose Response HTS to Identify Inhibitors of 5'UTR Stem-Loop Driven Prion Protein mRNA Translation in H4 Neuroglioblastoma Cells. [Related pubchem assays: 1827 (Project Summary), 1813 (Primary HTS)]; type: functional
# [10] = luciferase reporter signal suppression in cells – H4 neuroglioma cells, luminescence, dose response (AID 1990); type: functional, cell-based
# Hexokinase HKDC1 = molecular target: T4, Hexokinase HKDC1 (Homo sapiens, UniProt Q2TB90); experiment: inhibition of HKDC1 glucose phosphorylation – biochemical, W721R variant, dose response (AID 504729); type: functional
# T4 sequence (Q2TB90 whole entry): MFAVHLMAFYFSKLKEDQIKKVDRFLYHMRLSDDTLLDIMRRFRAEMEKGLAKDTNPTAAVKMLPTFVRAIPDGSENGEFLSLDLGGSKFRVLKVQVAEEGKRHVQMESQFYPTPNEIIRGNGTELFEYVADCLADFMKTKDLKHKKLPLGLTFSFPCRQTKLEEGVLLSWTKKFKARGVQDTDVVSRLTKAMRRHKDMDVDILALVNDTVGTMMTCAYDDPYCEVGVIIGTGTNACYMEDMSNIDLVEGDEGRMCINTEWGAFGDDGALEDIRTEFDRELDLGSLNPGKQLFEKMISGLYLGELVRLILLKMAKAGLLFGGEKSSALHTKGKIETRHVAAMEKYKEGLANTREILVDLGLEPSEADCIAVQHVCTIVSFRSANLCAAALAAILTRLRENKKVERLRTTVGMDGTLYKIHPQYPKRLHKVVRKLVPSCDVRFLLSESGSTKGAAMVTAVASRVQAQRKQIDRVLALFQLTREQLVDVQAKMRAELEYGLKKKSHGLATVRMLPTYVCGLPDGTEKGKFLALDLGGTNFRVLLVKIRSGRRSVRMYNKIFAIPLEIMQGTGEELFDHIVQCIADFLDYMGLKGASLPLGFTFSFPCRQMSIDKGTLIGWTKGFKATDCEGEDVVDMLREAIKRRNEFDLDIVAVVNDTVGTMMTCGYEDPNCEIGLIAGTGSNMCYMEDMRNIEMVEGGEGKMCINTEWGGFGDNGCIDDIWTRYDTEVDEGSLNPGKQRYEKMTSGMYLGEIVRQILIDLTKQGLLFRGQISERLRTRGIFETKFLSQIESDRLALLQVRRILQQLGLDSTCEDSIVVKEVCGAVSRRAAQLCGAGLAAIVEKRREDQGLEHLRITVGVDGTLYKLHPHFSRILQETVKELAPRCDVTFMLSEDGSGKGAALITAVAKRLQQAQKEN
structure (smiles),measurement,setting,value
Cc1[nH]n(-c2nc(-c3ccccc3)cc(=O)[nH]2)c(=O)c1CCO,EC50,[1],30.7 µM (active)
same,IC50,[2],2.82 µM (active)
same,EC50,[3],> 100 µM (inactive)
same,IC50,[4],2.36 µM (active)
CC1C(c2ccccc2)N(C)C(c2ccccc2)C(C)C1(O)C#Cc1ccccc1 (centres undefined),IC50,Beta-galactosidase,> 66.6 µM (inactive)
same,IC50,[5],> 66.6 µM (inactive)
Cc1ccc(-c2nc3ccccc3c(=O)n2CCN2CCOCC2)cc1,IC50,[6],> 100 µM (not active)
same,IC50,[7],> 100 µM (inactive)
NC(=O)C1CCN(C(=O)c2ccc(-c3ccccc3)cc2)CC1,EC50,"Troponin, cardiac muscle",> 71.5 µM (inactive)
O=C(NCCc1ccccc1)c1cnn2c(C(F)F)cc(C3CC3)nc12,EC50,[8],> 120 µM (not active)
same,EC50,[9],> 120 µM (not active)
same,EC50,[10],> 120 µM (not active)
same,IC50,Hexokinase HKDC1,5.5 µM (active)
COc1cc(-c2c(-c3ccc4c(c3)OCO4)noc2C)ccc1F,EC50,"Troponin, cardiac muscle",> 71.4 µM (inactive)
